Where two headings read alike, the source gives them in different places.

This test relates to test plant species. Briefly: Post-emergent herbicidal activity test (greenhouse, foliar spray, visual growth reduction). The format is in vivo. Conditions: post-emergence, 336 h, 140 g ai/ha, 14 days after application. The procedure, abridged: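 Scoring used a 0 to 100 percent visual scale of growth reduction against solvent-treated controls, read 14 d after spraying. Applications went onto plants at first or second true leaf stage, 187 L/ha, with crop oil concentrate and X-77 surfactant in the carrier. Post-treatment watering was by subirrigation to avoid wash-off.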

The mark [1] stands for this setting: ALOMY: blackgrass (Alopecurus myosuroides), read-out: Visual Growth Reduction (%) 14 Days After Application, ALOMY.
Where [2] appears, read: AMARE: redroot pigweed (Amaranthus retroflexus), read-out: Visual Growth Reduction (%) 14 Days After Application, AMARE.
Setting [3] is: AVEFA: wild oat (Avena fatua), read-out: Visual Growth Reduction (%) 14 Days After Application, AVEFA.
[4] abbreviates: CHEAL: lambsquarters (Chenopodium album), read-out: Visual Growth Reduction (%) 14 Days After Application, CHEAL.
[5] abbreviates: CIRAR: canada thistle (Cirsium arvense), read-out: Visual Growth Reduction (%) 14 Days After Application, CIRAR.
Where [6] appears, read: CYPES: yellow nutsedge (Cyperus esculentus), read-out: Visual Growth Reduction (%) 14 Days After Application, CYPES.
Setting [7] is: DIGSA: crabgrass (Digitaria sanguinalis), read-out: Visual Growth Reduction (%) 14 Days After Application, DIGSA.
Where [8] appears, read: ECHCG: barnyardgrass (Echinochloa crus-galli), read-out: Visual Growth Reduction (%) 14 Days After Application, ECHCG.
[9] abbreviates: IPOHE: ivy-leaf morning glory (Ipomoea hederacea), read-out: Visual Growth Reduction (%) 14 Days After Application, IPOHE.
The mark [10] stands for this setting: KCHSC: kochia (Bassia scoparia), read-out: Visual Growth Reduction (%) 14 Days After Application, KCHSC.
[11] abbreviates: ORYSA: rice (Oryza sativa), read-out: Visual Growth Reduction (%) 14 Days After Application, ORYSA.
The mark [12] stands for this setting: SETFA: giant foxtail (Setaria faberi), read-out: Visual Growth Reduction (%) 14 Days After Application, SETFA.
[13] abbreviates: SORVU: grain sorghum (Sorghum vulgare), read-out: Visual Growth Reduction (%) 14 Days After Application, SORVU.
The mark [14] stands for this setting: STEME: common chickweed (Stellaria media), read-out: Visual Growth Reduction (%) 14 Days After Application, STEME.
The mark [15] stands for this setting: TRZAS: wheat, spring (Triticum aestivum), read-out: Visual Growth Reduction (%) 14 Days After Application, TRZAS.

On to `COC(=O)c1nc(-c2ccc3[nH]ccc3c2)c(F)cc1Cl` [F189, Methyl 3-chloro-5-fluoro-6-(1H-indol-5-yl)picolinate], for which the pest or weed control at 140 g/ha is, setting by setting: under setting [1], 0 to 29%; under setting [2], 0 to 29%; under setting [3], 0 to 29%; under setting [4], 30 to 44%; under setting [5], 30 to 44%; under setting [6], 0 to 29%. Moreover, the pest or weed control at 140 g/ha under setting [7] is 0 to 29%; the pest or weed control at 140 g/ha under setting [8] lay in the range of 0 to 29%; the pest or weed control at 140 g/ha under setting [9] fell in the range of 60 to 74%; the pest or weed control at 140 g/ha under setting [10] lay within 0 to 29%; the pest or weed control at 140 g/ha under setting [11] fell in the range of 0 to 29%; the pest or weed control at 140 g/ha under setting [12] was in the range of 0 to 29%. For the same molecule, the pest or weed control at 140 g/ha runs as follows: under setting [13], 0 to 29%; under setting [14], 0 to 29%; under setting [15], 0 to 29%.
Take `COc1cc(C(F)(F)F)ccc1-c1nc(C(=O)O)c(Cl)cc1F` [F190, 3-Chloro-5-fluoro-6-(2-methoxy-4-(trifluoromethyl)phenyl) picolinic acid]: the pest or weed control at 140 g/ha reads like this: under setting [1], 0 to 29%; under setting [2], 95 to 100%; under setting [3], 60 to 74%; under setting [4], 95 to 100%; under setting [5], 85 to 94%; under setting [6], 0 to 29%. For the same molecule, the pest or weed control at 140 g/ha under setting [7] was 85 to 94%; the pest or weed control at 140 g/ha under setting [8] lay in the range of 95 to 100%; the pest or weed control at 140 g/ha under setting [9] was 95 to 100%; the pest or weed control at 140 g/ha under setting [10] lay within 75 to 84%; the pest or weed control at 140 g/ha under setting [11] lay within 30 to 44%; the pest or weed control at 140 g/ha under setting [12] was in the range of 95 to 100%. The pest or weed control at 140 g/ha under setting [13] lay within 95 to 100%, the pest or weed control at 140 g/ha under setting [14] lay within 0 to 29% and the pest or weed control at 140 g/ha under setting [15] was in the range of 60 to 74%.
With `COC(=O)c1nc(-c2ncc(Cl)cc2Cl)ccc1Cl` [F191, Methyl 3′,5,5′-trichloro-[2,2′-bipyridine]-6-carboxylate], the pest or weed control at 140 g/ha under setting [1] fell in the range of 0 to 29%; the pest or weed control at 140 g/ha under setting [2] is 85 to 94%; the pest or weed control at 140 g/ha under setting [3] is 0 to 29%; the pest or weed control at 140 g/ha under setting [4] lay in the range of 95 to 100%; the pest or weed control at 140 g/ha under setting [5] lay in the range of 85 to 94%; the pest or weed control at 140 g/ha under setting [6] lay within 45 to 59%. Moreover, the pest or weed control at 140 g/ha by setting is: under setting [7], 85 to 94%; under setting [8], 75 to 84%; under setting [9], 95 to 100%; under setting [10], 60 to 74%; under setting [11], 0 to 29%; under setting [12], 85 to 94%. The pest or weed control at 140 g/ha was 85 to 94% under setting [13], 0 to 29% under setting [14] and 0 to 29% under setting [15].
On to `O=C(O)c1nc(-c2ccc(C(F)(F)F)nc2Cl)ccc1Cl` [F192, 2′,5-Dichloro-6′-(trifluoromethyl)-[2,3′-bipyridine]-6-carboxylic acid], for which the pest or weed control at 140 g/ha reads like this: under setting [1], 0 to 29%; under setting [2], 85 to 94%; under setting [3], 0 to 29%; under setting [4], 95 to 100%; under setting [5], 75 to 84%; under setting [6], 0 to 29%. Also, the pest or weed control at 140 g/ha reads like this: under setting [7], 85 to 94%; under setting [8], 75 to 84%; under setting [9], 95 to 100%; under setting [10], 60 to 74%; under setting [11], 0 to 29%; under setting [12], 75 to 84%. For the same molecule, the pest or weed control at 140 g/ha under setting [13] is 85 to 94%, the pest or weed control at 140 g/ha under setting [14] is 0 to 29% and the pest or weed control at 140 g/ha under setting [15] is 0 to 29%.
In the case of `O=C(O)c1nc(-c2ncc(Cl)c(C(F)F)c2Cl)ccc1Cl` [F193, 3′,5,5′-Trichloro-4′-(difluoromethyl)-[2,2′-bipyridine]-6-carboxylic acid], the pest or weed control at 140 g/ha reads like this: under setting [1], 0 to 29%; under setting [2], 95 to 100%; under setting [3], 30 to 44%; under setting [4], 85 to 94%; under setting [5], 0 to 29%; under setting [6], 0 to 29%. The pest or weed control at 140 g/ha under setting [7] is 85 to 94%; the pest or weed control at 140 g/ha under setting [8] lay within 85 to 94%; the pest or weed control at 140 g/ha under setting [9] lay in the range of 95 to 100%; the pest or weed control at 140 g/ha under setting [10] was in the range of 0 to 29%; the pest or weed control at 140 g/ha under setting [11] fell in the range of 0 to 29%; the pest or weed control at 140 g/ha under setting [12] lay in the range of 75 to 84%. For the same molecule, the pest or weed control at 140 g/ha under setting [13] lay within 95 to 100%, the pest or weed control at 140 g/ha under setting [14] lay in the range of 0 to 29% and the pest or weed control at 140 g/ha under setting [15] lay in the range of 0 to 29%.
Turning to `COC(=O)c1nc(-c2cnc(C(F)(F)F)cc2Cl)ccc1Cl` [F194, Methyl 4′,5-dichloro-6′-(trifluoromethyl)-[2,3′-bipyridine]-6-carboxylate], the pest or weed control at 140 g/ha under setting [1] was 0 to 29%; the pest or weed control at 140 g/ha under setting [2] fell in the range of 0 to 29%; the pest or weed control at 140 g/ha under setting [3] is 0 to 29%; the pest or weed control at 140 g/ha under setting [4] was 30 to 44%; the pest or weed control at 140 g/ha under setting [5] is 75 to 84%; the pest or weed control at 140 g/ha under setting [6] was 0 to 29%. For the same molecule, the pest or weed control at 140 g/ha runs as follows: under setting [7], 0 to 29%; under setting [8], 45 to 59%; under setting [9], 95 to 100%; under setting [10], 0 to 29%; under setting [11], 0 to 29%; under setting [12], 0 to 29%. In addition, the pest or weed control at 140 g/ha is, setting by setting: under setting [13], 45 to 59%; under setting [14], 0 to 29%; under setting [15], 0 to 29%.
In the case of `O=C(O)c1nc(-c2ncc(Cl)cc2Cl)ccc1Cl` [F195, 3′,5,5′-Trichloro-[2,2′-bipyridine]-6-carboxylic acid], the pest or weed control at 140 g/ha lay in the range of 0 to 29% under setting [1]; 95 to 100% under setting [2]; 30 to 44% under setting [3]; 95 to 100% under setting [4]; 0 to 29% under setting [5]; 0 to 29% under setting [6]. The pest or weed control at 140 g/ha under setting [7] lay in the range of 60 to 74%; the pest or weed control at 140 g/ha under setting [8] is 75 to 84%; the pest or weed control at 140 g/ha under setting [9] fell in the range of 95 to 100%; the pest or weed control at 140 g/ha under setting [10] fell in the range of 60 to 74%; the pest or weed control at 140 g/ha under setting [11] was in the range of 30 to 44%; the pest or weed control at 140 g/ha under setting [12] lay within 60 to 74%. In addition, the pest or weed control at 140 g/ha was 85 to 94% under setting [13], 0 to 29% under setting [14] and 45 to 59% under setting [15].
Turning to `O=C(O)c1nc(-c2cc3c(cc2Cl)OCO3)c(F)cc1Cl` [F196, 3-Chloro-6-(6-chlorobenzo[d][1,3]dioxol-5-yl)-5-fluoropicolinic acid], the pest or weed control at 140 g/ha under setting [1] was 0 to 29%; the pest or weed control at 140 g/ha under setting [2] lay in the range of 75 to 84%; the pest or weed control at 140 g/ha under setting [3] lay in the range of 0 to 29%; the pest or weed control at 140 g/ha under setting [4] was 85 to 94%; the pest or weed control at 140 g/ha under setting [5] fell in the range of 0 to 29%; the pest or weed control at 140 g/ha under setting [6] was in the range of 0 to 29%. Further, the pest or weed control at 140 g/ha was 0 to 29% under setting [7]; 0 to 29% under setting [8]; 95 to 100% under setting [9]; 60 to 74% under setting [10]; 0 to 29% under setting [11]; 0 to 29% under setting [12]. Also, the pest or weed control at 140 g/ha under setting [13] was 45 to 59%, the pest or weed control at 140 g/ha under setting [14] fell in the range of 0 to 29% and the pest or weed control at 140 g/ha under setting [15] was in the range of 0 to 29%.

(Values after patent US20230017045A1, “PYRIDINE AND PYRIMIDINE CARBOXYLATE HERBICIDES AND METHODS OF USE THEREOF” (Dow AgroSciences LLC, priority 2017, published 2023).)
